Consider two compounds from article PMC10112938 (Hypertension (Dallas, Tex. : 1979), 2023).

Experiment [1] concerns the target T1, adenosine A2B receptor (Homo sapiens, UniProt P29275).
T1 sequence (P29275 1-332): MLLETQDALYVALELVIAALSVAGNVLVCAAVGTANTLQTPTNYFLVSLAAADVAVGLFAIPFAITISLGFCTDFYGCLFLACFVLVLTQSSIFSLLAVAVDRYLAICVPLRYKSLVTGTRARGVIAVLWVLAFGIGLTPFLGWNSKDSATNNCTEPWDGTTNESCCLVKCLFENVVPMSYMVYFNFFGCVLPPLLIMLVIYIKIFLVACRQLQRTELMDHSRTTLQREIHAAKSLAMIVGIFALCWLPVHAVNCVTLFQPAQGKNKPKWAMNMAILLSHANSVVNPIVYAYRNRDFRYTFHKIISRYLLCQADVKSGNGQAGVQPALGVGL
In words: HTRF […]', […]'-cAMP assay in HEK293 cells expressing human A2B receptors. Type of experiment: cell-based. For orientation: In TR-FRET formats the signal depends on donor and acceptor labels being close together.

The target in experiment [2] is T1, adenosine A2B receptor. The experiment is described as above. It counts as cell-based. The source holds these as a separate data set.

Regarding `CCCn1c(=O)c2[nH]c(-c3ccc(OCC(=O)Nc4ccc(C#N)cc4)cc3)nc2n(CCC)c1=O` [MRS 1754], the “HTRF 3',5'-cAMP assay in HEK293 cells expressing human A2B receptors; antagonism” value on adenosine A2B receptor [1] is 1 µmol/L.

For `O=c1[nH]cnc2c1ncn2[C@@H]1O[C@H](CO)[C@@H](O)[C@H]1O` [inosine], at adenosine A2B receptor [2], the “HTRF 3',5'-cAMP assay in HEK293 cells expressing human A2B receptors; response a” value lay in the range of 3 to 10 µmol/L.
